Like-named read-outs stand apart in the source and are kept apart here.
Legend:
[1] = target: TEM-1 (Escherichia coli, UniProt P62593); assay type: biochemical, E. coli; parameters: His-tag (N); TEV cleavage site (N); made in house; host or cells: E. coli BL21 (DE3); conditions: static light scattering during temperature ramp, inhibitor titration
Description: Then, we performed a thermal denaturation whilst simultaneously monitoring the intrinsic fluorescence as a measure of the folding status of the molecule (Fig. 1D and Supplementary Fig. 2D) and the static light scattering as a measure of aggregation (Fig. 1E and Supplementary Fig. 2E).
D Heat denaturation of TEM-1 monitored by intrinsic fluorescence plotted as the BaryCentric Mean (BCM) of the fluorescence emission spectrum in the presence (red) and absence (blue) of tazobactam. […] E Temperature-dependent evolution of the Right-Angle Light Scattering (RALS) intensity measured simultaneously with the data in D to monitor protein aggregation. […] F Same data as in E, but showing a dose-titration of the beta-lactamase inhibitor tazobactam.

[2] = system: E. coli TEM104
Description: (§1) To quantify the synergy between these four peptides and penicillin G, we performed a so-called checkerboard assay, which allows us to compare the activity of two test compounds co-incubated (here peptide and a beta-lactam antibiotic), to their individual activities in isolation. […] We evaluated the synergy of the peptides with penicillin G in clinical E. coli isolates carrying the TEM (Fig. 3D) or SHV enzymes (Fig. 3E). […] The list of strains included some that harbored only TEM or SHV, but others contained additional Ambler Class A (CTX-M or OXA) or Class B (VIM and NDM) beta-lactamases.
(§2) For the analysis of synergy between the peptides and other antibiotics, a checkerboard assay was performed. Based on the MICs of the selected peptides, a checkerboard assay was designed to define their FICIs (Fractional Inhibitory Concentration Index) in combinations against different clinical isolates[53],[54]. Briefly, a total volume of 100 μL of Mueller–Hinton broth was distributed into each well of the 96-well plates. The first compound (peptide) of the combination was serially diluted vertically (128, 64, 32, 16, 8, 4, 2, 0 μg/mL) while the other drug (Beta-lactam or Kanamycin) was diluted horizontally in a 96-well plate (from 3200 to 3 μg/ mL). The total volume of each microtiter well was inoculated with 100 μL of MHB containing 1 × 10^6 CFU/mL bacteria. The plates were incubated at 37 °C for 24 h under aerobic conditions without shaking. Calculation of the FICI is used to analyze the results of the checkerboard assay by estimating the degree of synergistic effect. FICI is calculated as the sum of the individual fractional inhibitory concentrations (FICs) for each drug (where MIC A and MIC B denote the MIC of each drug alone, and MIC AA+B and MIC BA+B denote the concentrations of A and B in the drug combination). FICI = (MIC AA+B/MIC A) + (MIC BA+B/MIC B). With FICI ≤ 0.5, the combination of antibiotics is considered as a synergistic effect, 0.5 < FICI ≤ 1 indicates additivity, FICI > 1 indicates indifference.

[3] = system: E. coli NDM-5b; conditions: for synergy with penicillin (in words): checkerboard, strain containing NDM5b; for FICi values: E. coli NDM-5b
Excerpt: (§3) As we wondered about the generality of our peptide design approach, we set out to design a peptide to inactivate a structurally unrelated beta-lactamase. To this end, we turned to the Ambler class B beta-lactamase NDM-1 that confers resistance to many beta-lactam antibiotics, including carbapenems, and strains carrying this enzyme were soon dubbed ‘superbugs’ that are only partially sensitive to colistin and tigecycline. This enzyme was first isolated from a patient in 2008[41]. By 2010 it could be detected in clinical isolates throughout the UK and India[42], and by 2015, in over 70 countries worldwide.
as §2

[4] = system: E. coli NDM-5a; conditions: for FICi values: E. coli NDM-5a; for synergy with penicillin (in words): checkerboard, strain containing NDM5a
Excerpt: as §3, §2

[5] = system: E. coli strain UZ_TEM104; conditions: broth microdilution, MHB, overnight 37 °C, peptide alone
Excerpt: Pept-Ins consist of a tandem repeat of the APR, each instance flanked by charged amino acids for solubility and separated by a short peptide linker[20],[21],[24] (Fig. 3A). Previous work has shown that good bacterial uptake can be achieved using one positively charged arginine residue on the N-terminal side of each APR in the tandem and two arginine residues on the C-terminal side[20],[21]. […] As before, we employed a single Pro residue as a linker between the APRs and focused on an APR length of seven, extending shorter APRs to this length by incorporating flanking amino acids unless they were obvious aggregation breakers (Arg, Lys, Asp, Glu or Pro, see Table 1).
Determination of MIC values was performed using the broth microdilution method according to the EUCAST guideline, which was performed in 96-well polystyrene flat-bottom microtiter plates (BD Biosciences). Briefly, a single colony was inoculated into 5 mL Difco™ Mueller–Hinton Broth (BD Biosciences Ref 275730) and grown to the end-exponential growth phase in a shaking incubator at 37 °C. Cultures were subsequently diluted to a MacFarland (0.5 optical density) to reach 10^6 CFU/mL in fresh MHB medium. 50 µl of different concentrations of peptides ranging from 128 to 2 µg/mL were serially diluted to the sterile 96-well plate in MHB. 50 µL of the diluted bacteria in MHB were next pipetted into 96-well plates to reach the final volume of 100 µL. The bacteria grown with the maximum concentration of carrier and medium were considered positive and negative controls, respectively. The plates were statically incubated overnight at 37 °C to allow bacterial growth. OD was measured at 590 nm using a multipurpose ultraviolet–visible plate reader, and the absorbance of the bacterial growth was measured using an absorbance reader.

[6] = system: E. coli SHV11; test: Checkerboard assay (FICI); assay type: cell-based, Escherichia coli; conditions: strain containing SHV-11, FICI below 0.5 = synergy
Description: as §1
For the analysis of synergy between the peptides and other antibiotics, a checkerboard assay was performed. Based on the MICs of the selected peptides, a checkerboard assay was designed to define their FICIs (Fractional Inhibitory Concentration Index) in combinations against different clinical isolates[53],[54]. Briefly, a total volume of 100 μL of Mueller–Hinton broth was distributed into each well of the 96-well plates. […] FICI is calculated as the sum of the individual fractional inhibitory concentrations (FICs) for each drug (where MIC A and MIC B denote the MIC of each drug alone, and MIC AA+B and MIC BA+B denote the concentrations of A and B in the drug combination). […]

[7] = system: E. coli strain UZ_TEM104; test: microbe, parasite or virus in culture; assay type: cell-based, Escherichia coli; conditions: Escherichia coli, read-out: MIC penicillin
[8] = system: E. coli UZ_TEM104; test: FACS with pFTAA (aggregation) and propidium iodide (cell death); assay type: cell-based, Escherichia coli; conditions: 4 h; penicillin G 400 μg/mL and/or TEM3.2 50 μg/mL
Description: Fig. 6 Uptake and inclusion body formation upon peptide treatment. Fluorescence-activated cell-sorting (FACS) (A) of E. coli strain UZ_TEM104 mixed 50–50% with the same strain after heat-inactivation. The cells were stained with pFTAA to monitor aggregation and propidium iodide (PI) to monitor cell permeabilization associated with cell death. 10^6 cells were analyzed for the plot. […] B Similar FACS analysis as in A, but with a sample of live bacteria only. […] Note: the horizontal and vertical lines correspond to the gatings used to obtain the quantifications shown in the corners of each image.
Treated bacteria were washed with PBS buffer two times. One microliter of PI (Invitrogen) was added to the bacteria and incubated for 5 min. The bacteria were counted by FACS to reach 40000 events. To correlate the activity of the peptides with cell death, the fluorescence intensity was measured in two channels using the Gallios^TM Flow Cytometer (Beckman Coulter, USA), PI: excitation 536 nm and emission 617 nm, FITC: excitation 490 nm and emission 525 nm. Heated bacteria at 90 °C for 10 min were used as PI-positive control.
The bacterial cultures were washed with PBS, and the number of bacteria was adjusted to 10^8–10^9 cells/mL. […] Then, cells were treated with LCO dyes (pFTAA; Amytacker^TM680 or Amytacker^TM545: final concentration of 0.5 µM; Ebba Biotech, Sweden) for at least 90 min. The absorption, emission, and excitation spectra for each dye were measured based on the standard Ebbabiotec advice (ebbabiotech.com).

[9] = target: the molecule itself; test: Thioflavin-T and pFTAA fluorescence kinetics + DLS + transmission electron microscopy; 50 μM TEM3.2 with polyphosphate (PolyP); electron microscopy after 24 h incubation at RT; the peptide is called soluble in buffer alone

Sequence of TEM-1 (P62593 24-286 limits assumed): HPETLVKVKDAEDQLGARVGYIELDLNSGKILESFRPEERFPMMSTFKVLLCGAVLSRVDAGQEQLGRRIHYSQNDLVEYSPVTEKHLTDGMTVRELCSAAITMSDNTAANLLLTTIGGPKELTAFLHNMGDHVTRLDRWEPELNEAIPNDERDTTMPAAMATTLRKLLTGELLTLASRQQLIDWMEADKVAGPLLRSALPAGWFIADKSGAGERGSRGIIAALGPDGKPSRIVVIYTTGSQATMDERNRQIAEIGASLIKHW

Molecule | FICi values ([2]; TEM104, Replicate1) | FICi values ([2]; TEM104, Replicate2) | FICi values ([2]; TEM104, Replicate3) | FICi values ([2]; TEM104, Replicate4) | FICi values ([2]; TEM104, Replicate5) | synergy with penicillin (in words) [3] | FICi values ([4]; Replicate1) | FICi values ([4]; Replicate2) | FICi values ([4]; Replicate3) | FICi values ([4]; Replicate4) | FICi values ([4]; Replicate5) | synergy with penicillin (in words) [4] | also measured
NC(=O)[C@@H]1CC[C@@H]2CN1C(=O)N2OS(=O)(=O)O [avibactam] |  |  |  |  |  |  |  |  |  |  |  |  | effect on aggregation of TEM-1, dose-response (in words) [1]: reduce the aggregation of the enzyme in a dose-responsive manner
Ac-RLAAALMLRRPRAQILNWIRR-NH2 [NDM1-2] | 0.75 | 1 | 0.5 | 1 | 0.72 | show synergy | 0.375 | 0.36 | 0.25 | 0.159 | 0.25 | show synergy | 
Ac-RSVIIWSLGRRPRSVIIWSLGRR-NH2 [BGAL] | 1 | 1 | 1 | 1 | 1.5 | neither showed synergy on any of the strains used | 2 | 2 | 2 | 1.5 | 2 | neither showed synergy on any of the strains used | MIC peptide [5]: > 100 µg/mL; synergy with penicillin G (in words) [6]: no synergy with penicillin G; FICi values ([3]; Replicate1): 2; FICi values ([3]; Replicate2): 1; FICi values ([3]; Replicate3): 2; FICi values ([3]; Replicate4): 2; FICi values ([3]; Replicate5): 1.5
CC1(C)S[C@@H]2[C@H](NC(=O)Cc3ccccc3)C(=O)N2[C@H]1C(=O)O [penicillin G, Benzylpenicillin sodium] |  |  |  |  |  |  |  |  |  |  |  |  | MIC [7]: 1600 µg/mL; shift in pFTAA and PI channels (in words) [8]: no major change in either channel
Ac-RLTAFLHNRRPRLTAFLRQRR-NH2 (designed tandem of the TEM version (LTAFLHN) and the SHV version (LTAFLRQ) of APR 3, each flanked by Arg, with a Pro linker; also called peptide TEM3.2; source: synthetic peptide (Genscript, >90% purity; also in-house solid-phase synthesis)) [Pept-In TEM3.2] |  |  |  |  |  |  |  |  |  |  |  |  | binding result [9]: binds
